# Measurements: patent US10285982B2, “3-(1H-pyrrolo[2,3-B]pyridin-2-yl)-1H-pyrazolo[3,4-C]pyridines and therapeutic uses thereof” (Samumed, LLC, priority 2015, dated 2019)
# Experiments:
# Type in all cases: cell-based
# [1] = tested on: SW480 colon cancer cells; assay: Cell viability assay (CellTiter-Blue); conditions: Homo sapiens, 96 h, four days; for inhibition at 10 µM: given where EC50 >10 μM, read-out: percent inhibition at 10 μM
# Summary of the method: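 Approximately 2×10^3 SW480 cells per well are seeded with compound (8 points, threefold steps, top 10 μM) and incubated four days at 37 °C. CellTiter-Blue is then added for about 3 h and fluorescence read. Non-linear regression gives EC50; for values beyond 10 μM, percent inhibition at that concentration is listed.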
# [2] = tested on: IL-6 (THP-1 cells); assay: IL-6 inhibition in LPS-stimulated THP-1 cells (HTRF); conditions: Homo sapiens; for EC50: IL-6 in THP-1 cells, LPS 500 ng/mL, 22 hours; for inhibition at 10 µM: given where EC50 >10 μM, IL-6, THP-1 cells, LPS, read-out: percent inhibition at 10 μM
# Summary of the method: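 THP-1 cells, serum-reduced (1% FBS) for 24 h, were preincubated with compound (10-point 1:3 series from 10 μM, 0.1% DMSO) for 2 h, then stimulated with 500 ng/mL LPS for 22 h at 37° C. IL-6 was read by HTRF (665/620 nm ratio) and normalized to DMSO. EC50 from four-parameter fit; % inhibition at 10 μM given if EC50 >10 μM.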
# [3] = tested on: Wnt activity (Sp5-Luc reporter, SW480 colon carcinoma cells); assay: Wnt activity screening assay, Sp5-Luc reporter gene in SW480 cells; conditions: Homo sapiens; for inhibition at 10 µM: given where EC50 >10 μM, read-out: percent inhibition at 10 μM; for EC50: overnight incubation
# Summary of the method: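 Wnt-driven firefly luciferase in SW480 colon carcinoma cells reports pathway activity after overnight compound exposure (10 μM top concentration, 3-fold steps). Signal is normalized to DMSO controls.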
SMILES,inhibition at 10 µM [1] [%],EC50 [1] [µM],EC50 [2] [µM],inhibition at 10 µM [2] [%],inhibition at 10 µM [3] [%],EC50 [3] [µM]
"CC(C)CC(=O)Nc1cncc(-c2cc3c(-c4cc5c(-c6ccncc6)ccnc5[nH]4)n[nH]c3cn2)c1 [Compound 114, 3-Methyl-N-(5-(3-(4-(pyridin-4-yl)-1H-pyrrolo[2,3-b]pyridin-2-yl)-1H-pyrazolo[3,4-c]pyridin-5-yl)pyridin-3-yl)butanamide]",0,> 10,> 10,13,9.6,> 10
"Cc1ccncc1-c1cc2c(-c3cc4c(-c5ccncc5)ccnc4[nH]3)n[nH]c2cn1 [Compound 117, 5-(4-Methylpyridin-3-yl)-3-(4-(pyridin-4-yl)-1H-pyrrolo[2,3-b]pyridin-2-yl)-1H-pyrazolo[3,4-c]pyridine]",,8.43,> 10,15.9,42.4,> 10
"O=C(Cc1ccccc1)Nc1cncc(-c2cc3c(-c4cc5c(-c6ccncc6)ccnc5[nH]4)n[nH]c3cn2)c1 [Compound 122, 2-Phenyl-N-(5-(3-(4-(pyridin-4-yl)-1H-pyrrolo[2,3-b]pyridin-2-yl)-1H-pyrazolo[3,4-c]pyridin-5-yl)pyridin-3-yl)acetamide]",7,> 10,> 10,34.8,7.9,> 10
"CN(C)Cc1cncc(-c2cc3c(-c4cc5c(-c6ccncc6)ccnc5[nH]4)n[nH]c3cn2)c1 [Compound 125, N,N-Dimethyl-1-(5-(3-(4-(pyridin-4-yl)-1H-pyrrolo[2,3-b]pyridin-2-yl)-1H-pyrazolo[3,4-c]pyridin-5-yl)pyridin-3-yl)methanamine]",3.9,> 10,> 10,34.4,12.6,> 10
"O=C(Nc1cncc(-c2cc3c(-c4cc5c(-c6ccncc6)ccnc5[nH]4)n[nH]c3cn2)c1)C1CCC1 [Compound 133, N-(5-(3-(4-(Pyridin-4-yl)-1H-pyrrolo[2,3-b]pyridin-2-yl)-1H-pyrazolo[3,4-c]pyridin-5-yl)pyridin-3-yl)cyclobutanecarboxamide]",3.7,> 10,> 10,11.9,1.8,> 10
"O=C(Nc1cncc(-c2cc3c(-c4cc5c(-c6ccncc6)ccnc5[nH]4)n[nH]c3cn2)c1)C1CCCCC1 [Compound 135, N-(5-(3-(4-(Pyridin-4-yl)-1H-pyrrolo[2,3-b]pyridin-2-yl)-1H-pyrazolo[3,4-c]pyridin-5-yl)pyridin-3-yl)cyclohexanecarboxamide]",10.3,> 10,> 10,17.8,13,> 10
"c1ccc(-c2cc3c(-c4cc5c(-c6ccncc6)ccnc5[nH]4)n[nH]c3cn2)nc1 [Compound 140, 5-(Pyridin-2-yl)-3-(4-(pyridin-4-yl)-1H-pyrrolo[2,3-b]pyridin-2-yl)-1H-pyrazolo[3,4-c]pyridine]",17.5,> 10,> 10,23.5,24.3,> 10
"c1cc(N2CCCCC2)c2cc(-c3n[nH]c4cnc(-c5cncc(CN6CCCC6)c5)cc34)[nH]c2n1 [Compound 182, 3-(4-(Piperidin-1-yl)-1H-pyrrolo[2,3-b]pyridin-2-yl)-5-(5-(pyrrolidin-1-ylmethyl)pyridin-3-yl)-1H-pyrazolo[3,4-c]pyridine]",54.9,> 10,> 10,39,41.4,> 10
"O=C(Nc1cncc(-c2cc3c(-c4cc5c(N6CCCCC6)ccnc5[nH]4)n[nH]c3cn2)c1)C1CC1 [Compound 188, N-(5-(3-(4-(Piperidin-1-yl)-1H-pyrrolo[2,3-b]pyridin-2-yl)-1H-pyrazolo[3,4-c]pyridin-5-yl)pyridin-3-yl)cyclopropanecarboxamide]",,1.28,> 10,16.2,,1.23
"CN1CCN(c2ccnc3[nH]c(-c4n[nH]c5cnc(-c6cncc(N(C)C)c6)cc45)cc23)CC1 [Compound 231, N,N-Dimethyl-5-(3-(4-(4-methylpiperazin-1-yl)-1H-pyrrolo[2,3-b]pyridin-2-yl)-1H-pyrazolo[3,4-c]pyridin-5-yl)pyridin-3-amine]",9.2,> 10,> 10,3.7,8.2,> 10
"CN1CCN(c2ccnc3[nH]c(-c4n[nH]c5cnc(-c6cncc(CNCC7CCCC7)c6)cc45)cc23)CC1 [Compound 249, 1-Cyclopentyl-N-((5-(3-(4-(4-methylpiperazin-1-yl)-1H-pyrrolo[2,3-b]pyridin-2-yl)-1H-pyrazolo[3,4-c]pyridin-5-yl)pyridin-3-yl)methyl)methanamine]",,4.29,7.87,,41.4,> 10
"CC(C)CC(=O)Nc1cncc(-c2cc3c(-c4cc5cccnc5[nH]4)n[nH]c3cn2)c1 [Compound 254, N-(5-(3-(1H-Pyrrolo[2,3-b]pyridin-2-yl)-1H-pyrazolo[3,4-c]pyridin-5-yl)pyridin-3-yl)-3-methylbutanamide]",20.2,> 10,0.529,,12.4,> 10
"c1cncc(-c2cc3c(-c4cc5cccnc5[nH]4)n[nH]c3cn2)c1 [Compound 256, 5-(Pyridin-3-yl)-3-(1H-pyrrolo[2,3-b]pyridin-2-yl)-1H-pyrazolo[3,4-c]pyridine]",19.3,> 10,0.023,,57.7,> 10
"O=C(Cc1ccccc1)Nc1cncc(-c2cc3c(-c4cc5cccnc5[nH]4)n[nH]c3cn2)c1 [Compound 262, N-(5-(3-(1H-Pyrrolo[2,3-b]pyridin-2-yl)-1H-pyrazolo[3,4-c]pyridin-5-yl)pyridin-3-yl)-2-phenylacetamide]",26.5,> 10,> 10,26.7,9.1,> 10
"O=C(Nc1cncc(-c2cc3c(-c4cc5cccnc5[nH]4)n[nH]c3cn2)c1)c1ccccc1 [Compound 263, N-(5-(3-(1H-Pyrrolo[2,3-b]pyridin-2-yl)-1H-pyrazolo[3,4-c]pyridin-5-yl)pyridin-3-yl)benzamide]",22.5,> 10,> 10,39.2,17,> 10
"O=C(Nc1cncc(-c2cc3c(-c4cc5cccnc5[nH]4)n[nH]c3cn2)c1)C1CC1 [Compound 272, N-(5-(3-(1H-Pyrrolo[2,3-b]pyridin-2-yl)-1H-pyrazolo[3,4-c]pyridin-5-yl)pyridin-3-yl)cyclopropanecarboxamide]",23.3,> 10,3.06,,19.3,> 10
"O=C(Nc1cncc(-c2cc3c(-c4cc5cccnc5[nH]4)n[nH]c3cn2)c1)C1CCCCC1 [Compound 275, N-(5-(3-(1H-Pyrrolo[2,3-b]pyridin-2-yl)-1H-pyrazolo[3,4-c]pyridin-5-yl)pyridin-3-yl)cyclohexanecarboxamide]",9.5,> 10,> 10,24.7,14,> 10
"FC1(F)CCN(Cc2cncc(-c3cc4c(-c5cc6cccnc6[nH]5)n[nH]c4cn3)c2)C1 [Compound 278, 5-(5-((3,3-Difluoropyrrolidin-1-yl)methyl)pyridin-3-yl)-3-(1H-pyrrolo[2,3-b]pyridin-2-yl)-1H-pyrazolo[3,4-c]pyridine]",,5.01,0.029,,,1.35
"Nc1cncc(-c2cc3c(-c4cc5c(-c6ccoc6)ccnc5[nH]4)n[nH]c3cn2)c1 [Compound 311, 5-(3-(4-(Furan-3-yl)-1H-pyrrolo[2,3-b]pyridin-2-yl)-1H-pyrazolo[3,4-c]pyridin-5-yl)pyridin-3-amine]",5.5,> 10,> 10,36.3,23.2,> 10
"CCCC(=O)Nc1cncc(-c2cc3c(-c4cc5c(-c6cc(F)cc(NCCN(C)C)c6)ccnc5[nH]4)n[nH]c3cn2)c1 [Compound 465, N-(5-(3-(4-(3-((2-(Dimethylamino)ethyl)amino)-5-fluorophenyl)-1H-pyrrolo [2,3-b]pyridin-2-yl)-1H-pyrazolo[3,4-c]pyridin-5-yl)pyridin-3-yl)butyramide]",10.6,> 10,> 10,21.5,16.1,> 10
